Several values for one entry are separate records, joined by “and”; a condition that tells them apart may be missing. Equal entries are not always repeated. Marks after values point to notes of the source that are not given here.
Tests used:
Ascaris-sensitized sheep [1] = test: Airway responsiveness to inhaled carbachol (PC400), Examples 1-2; format: in vivo; details: for ORC #2 (24 P-Ag.) (carbachol reactivity, PC 400) / ORC #1 BSLN. (carbachol reactivity, PC 400): Example 2, aerosol 40 mg b.i.d. (2 mg/kg/day); for ORC #2 (24 P-Ag.) (carbachol reactivity, PC 400): 24 hour post-antigen challenge; for ORC #1 BSLN. (carbachol reactivity, PC 400): baseline
Protocol: Dose Response Curves to Inhaled Carbachol: For the carbachol dose response curves, measurements of SRL were repeated immediately after inhalation of buffer and after each administration of 10 breaths of increasing concentrations of carbachol solution (0.25%, 0.5%, 1.0%, 2.0% and 4.0% w/v). To assess airway responsiveness, the cumulative carbachol dose in breath units (BU) that increased SRL 400% over the post-buffer value (i.e. PC400) was calculated from the dose response curve. One breath unit was defined as one breath of a 1% w/v carbachol solution.
At 3 to 4 days before treatment was begun, baseline airway responsiveness, to aerosol carbachol (i.e., PC400) was determined and a baseline bronchial biopsy performed. […] The animals were treated two times a day for 3 days and then, on the fourth day, at 0.5 hours before antigen challenge and again at 4 hours after challenge. On the antigen-challenge day, SRL was measured and the animals were than treated with HCQ designated compound. SRL was remeasured 0.5 h after treatment (just before challenge) and the animals were then challenged with antigen. SRL was then remeasured immediately after.
On the fourth day, they received an additional treatment one-half hour prior to antigen challenge.

Ascaris-sensitized sheep [2] = test: Antigen-induced specific lung resistance (baseline, peak EAR, peak LAR), Example 3; format: in vivo; details: for EAR (peak, largest specific lung resistance 0–4 h) / LAR (peak, largest specific lung resistance 5–8 h): mean ± SE, n = 3 sheep
Excerpt: All procedures were approved by the Mount Sinai Medical Center Animal Research Committee, which is responsible for assuring the humane care and use of experimental animals. […] During the chronic treatment trail, venous blood samples were obtained from the external jugular vein for the determination of plasma compound concentrations. Samples were obtained as baseline (pre-dosing), and, then, before dosing on days 8, 15, 22, 29 and after dosing had stopped on day 43. Measurement of Airway Mechanics: The unsedated sheep were restrained in a cart in the prone position with their heads immobilized. After topical anesthesia of the nasal passages with 2%-lidocaine solution, a balloon catheter was advanced through one nostril into the lower esophagus. The animals were […] with a cuffed endotracheal tube through the other nostril using a flexible fiberoptic bronchoscope as a guide. (The cuff of the endotracheal tube was inflated only for the measurement of airway mechanics and during aerosol challenges to prevent undue discomfort. This procedure has no-effect on airway mechanics). Pleural pressure was estimated with the esophageal balloon catheter (filled with one ml of air) which was positioned 5–10 cm from the gastroesophageal junction. In this position, the end expiratory pleural pressure ranged between -2 and -5 cm H2O. Once the balloon was placed, it was secured so that it remained in position for the duration of the experiment. Lateral pressure in the trachea was measured with a sidehole catheter (inner dimension, 2.5 mm) advanced through and positioned distal to the tip of the endotracheal tube. Transpulmonary pressure, the difference between tracheal and pleural pressure, was measured with a differential pressure transducer catheter system. For the measurement of pulmonary resistance (RL), the proximal end of the endotracheal tube was connected to a pneumotachograph. The signals of flow and transpulmonary pressure were recorded on a n oscilloscope recorder which was linked to a computer for on-line calculation of RL from transpulmonary pressure, respiratory volume (obtained by digital integration) and flow. Analysis of 5–10 breaths were used for the determination of RL. Immediately after the measurements of RL, thoracic gas volume (Vtg) was measured in a constant volume body plethysmograph to obtain specific lung resistance (SRL=RL·Vtg) in cm H2O·sec^−1. Aerosol Delivery Systems: Aerosols of Ascaris suum extract (diluted 20:1 with phosphate buffered saline; 82,000 PNU/ml) were generated using a disposable medical nebulizer (Raindrop^R, Puritan Bennett), which produces an aerosol with a mass median aerodynamic diameter of 3.2 μm (geometric standard deviation, 1.9) as determined by a 7 stage Andersen cascade impactor. The output from the nebulizer was directed into a plastic T-piece, one end of which was connected to the inspiratory port of a Harvard respirator. To better control aerosol delivery, a dosimeter consisting of a solenoid valve and a source of compressed air (20 psi) was activated at the beginning of the inspiratory cycle of the Harvard respirator system for 1 second. The aerosol was delivered at a tidal volume of 500 ml and a rate of 20 breaths per minute for 20 minutes. Each sheep was challenged with an equivalent dose of antigen (400 breaths) in the control and drug trials. Carbachol aerosols were also generated with this same nebulizer system. The same basic protocol was used for all studies in Example 3. This basic protocol consisted of first obtaining baseline dose response curves to aerosol carbachol 1–3 days prior to antigen challenge. Then, on the day of antigen challenge, values of specific lung resistance (SRL) were measured at baseline and, then, 30 min after drug or vehicle (0.9% saline) treatment. The animals were, then, challenged with Ascaris suum antigen and SRL was remeasured immediately after challenge, hourly from 1–6 h after challenge and on the half-hour from 6 ½–8 h after challenge. […]

[3] = No Treatment 14d after stopping aerosol 2 mg/kg/d x 28 d
[4] = No Treatment 28d after stopping aerosol 2 mg/kg/d x 28 d
[5] = aerosol 0.2 mg/kg once a day x 4 d
[6] = aerosol 0.6 mg/kg once a day x 4 d
[7] = aerosol 1 mg/kg twice a day for 4 days
[8] = aerosol 1 mg/kg twice a day x 4 d
[9] = aerosol 2 mg/kg once a day for 4 days
[10] = aerosol 2 mg/kg once a day x 4 d
[11] = aerosol 2 mg/kg once a day x 14 d
[12] = aerosol 2 mg/kg once a day x 28 d
[13] = chronic treatment, aerosol 2 mg/kg once a day for up to 4 weeks
[14] = dose response, aerosol 0.2, 0.6 and 2 mg/kg once a day for 4 days
[15] = p.o. 1 mg/kg twice a day for 4 days

CCN(CCO)CCCC(C)Nc1ccnc2cc(Cl)ccc12 (centres unmarked) [HCQ, hydroxychloroquine]
ORC #2 (24 P-Ag.) (carbachol reactivity, PC 400) (Ascaris-sensitized sheep [1]; Mean of 2 sheep): 15.82 breath units | ORC #2 (24 P-Ag.) (carbachol reactivity, PC 400) (Ascaris-sensitized sheep [1]; individual sheep): 15.86 breath units and 15.77 breath units | ORC #1 BSLN. (carbachol reactivity, PC 400) (Ascaris-sensitized sheep [1]; Mean of 2 sheep): 12.74 breath units | ORC #1 BSLN. (carbachol reactivity, PC 400) (Ascaris-sensitized sheep [1]; individual sheep): 10.65 breath units and 14.83 breath units | effect on bronchial hyperresponsiveness (Ascaris-sensitized sheep [1]; inhaled (nebulized), twenty-four hours later, summary of animal studies): continued effect at blocking | effect on LAR and AHR after stopping treatment (Ascaris-sensitized sheep [2]; 2 weeks after stopping 4 weeks aerosol 2 mg/kg once a day): carryover effect | response to allergen after stopping treatment (Ascaris-sensitized sheep [2]; 2 weeks after stopping aerosol 1 mg/kg twice a day for 4 days): responded normally | response to allergen after stopping treatment (Ascaris-sensitized sheep [2]; 2 weeks after stopping aerosol 2 mg/kg once a day for 4 days): responded normally | animals' responses after stopping treatment (Ascaris-sensitized sheep [2]; 4 weeks after stopping 4 weeks aerosol 2 mg/kg once a day): returned to normal | EAR (peak, largest specific lung resistance 0–4 h) (Ascaris-sensitized sheep [2]; [3]): 4.17 ± 1.70 cmH2O.sec^−1 | LAR (peak, largest specific lung resistance 5–8 h) (Ascaris-sensitized sheep [2]; [3]): 1.69 ± 0.21 cmH2O.sec^−1 | EAR (peak, largest specific lung resistance 0–4 h) (Ascaris-sensitized sheep [2]; [4]): 4.35 ± 0.74 cmH2O.sec^−1 | LAR (peak, largest specific lung resistance 5–8 h) (Ascaris-sensitized sheep [2]; [4]): 2.69 ± 0.26^h cmH2O.sec^−1 | EAR (peak, largest specific lung resistance 0–4 h) (Ascaris-sensitized sheep [2]; [5]): 3.95 ± 0.47 cmH2O.sec^−1 | LAR (peak, largest specific lung resistance 5–8 h) (Ascaris-sensitized sheep [2]; [5]): 2.22 ± 0.17^h cmH2O.sec^−1 | overall protective effect (Ascaris-sensitized sheep [2]; aerosol 0.6 mg/kg once a day for 4 days): significant protective effects | EAR (peak, largest specific lung resistance 0–4 h) (Ascaris-sensitized sheep [2]; [6]): 3.19 ± 0.51 cmH2O.sec^−1 | LAR (peak, largest specific lung resistance 5–8 h) (Ascaris-sensitized sheep [2]; [6]): 1.30 ± 0.18^f cmH2O.sec^−1 | effect on early airway response (EAR) (Ascaris-sensitized sheep [2]; [7]): no effect | effect on late airway response (LAR) (Ascaris-sensitized sheep [2]; [7]): blocked | EAR (peak, largest specific lung resistance 0–4 h) (Ascaris-sensitized sheep [2]; [8]): 5.57 ± 1.82 cmH2O.sec^−1 | LAR (peak, largest specific lung resistance 5–8 h) (Ascaris-sensitized sheep [2]; [8]): 1.35 ± 0.15^d,e cmH2O.sec^−1 | effect on EAR (Ascaris-sensitized sheep [2]; [9]): no effect | effect on LAR (Ascaris-sensitized sheep [2]; [9]): blocked | EAR (peak, largest specific lung resistance 0–4 h) (Ascaris-sensitized sheep [2]; [10]): 3.5 ± 0.73 cmH2O.sec^−1 and 3.53 ± 0.73 cmH2O.sec^−1 | LAR (peak, largest specific lung resistance 5–8 h) (Ascaris-sensitized sheep [2]; [10]): 1.34 ± 0.32^d,e cmH2O.sec^−1 and 1.34 ± 0.03^d cmH2O.sec^−1 | EAR (peak, largest specific lung resistance 0–4 h) (Ascaris-sensitized sheep [2]; [11]): 4.21 ± 1.68 cmH2O.sec^−1 | LAR (peak, largest specific lung resistance 5–8 h) (Ascaris-sensitized sheep [2]; [11]): 0.78 ± 0.39^f cmH2O.sec^−1 | EAR (peak, largest specific lung resistance 0–4 h) (Ascaris-sensitized sheep [2]; [12]): 4.21 ± 1.16 cmH2O.sec^−1 | LAR (peak, largest specific lung resistance 5–8 h) (Ascaris-sensitized sheep [2]; [12]): 1.22 ± 0.08^d cmH2O.sec^−1 | effect on EAR (Ascaris-sensitized sheep [2]; [13]): no effect | effect on LAR (Ascaris-sensitized sheep [2]; [13]): block | effect on EAR (Ascaris-sensitized sheep [2]; [14]): no effect | effect on LAR (Ascaris-sensitized sheep [2]; [14]): blocked | effect on antigen-induced EAR (Ascaris-sensitized sheep [2]; [15]): did not protect | effect on antigen-induced LAR (Ascaris-sensitized sheep [2]; [15]): did not protect | EAR (peak, largest specific lung resistance 0–4 h) (Ascaris-sensitized sheep [2]; p.o. 1 mg/kg twice a day x 4 d): 4.64 ± 0.55 cmH2O.sec^−1 | LAR (peak, largest specific lung resistance 5–8 h) (Ascaris-sensitized sheep [2]; p.o. 1 mg/kg twice a day x 4 d): 2.27 ± 0.10 cmH2O.sec^−1
